Where two headings read alike, the source gives them in different places.
How the values were obtained:
[1] = tested on: L. donovani promastigotes; assay: Antileishmanial Alamar Blue assay on promastigotes; assay type: cell-based, Leishmania donovani; conditions: for X more potent than Pentamidine: L. donovani, ratio of molar IC50 to Pentamidine
Procedure, shortened: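 Alamar Blue fluorescence (544/590 nm) quantified growth after 48 hours at 26° C of compound-treated promastigotes. Parasites were seeded at 5×10^5/mL in RPMI 1640 plus 10% FCS; drug range 50-3.1 μg/mL, and IC50 derived by plotting percent growth against test concentration.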

C. krusei ATCC 6258 = assay: Antifungal broth dilution assay against C. krusei (modified CLSI); assay type: cell-based, Candida krusei; conditions: for X more potent than Amphotericin B: C. krusei, ratio of molar IC50 to amphotericin B; for C. krusei IC50 / IC50: in vitro
Description: General Experimental Procedures. All organisms were obtained from the American Type Culture Collection (Manassas, VA) and include the fungi Candida albicans ATCC 90028, C. glabrata ATCC 90030, C. krusei ATCC 6258, and Cryptococcus neoformans ATCC 90113, and the bacteria Staphylococcus aureus ATCC 29213 and methicillin-resistant S. aureus ATCC 33591 (MRS). All organisms were tested using modified versions of the CLSI (formerly NCCLS) methods. For all organisms, optical density was used to monitor growth (NCCLS, Reference Method for Broth Dilution Antifungal Susceptibility Testing of Yeasts; Approved Standard M27-A2. National Committee on Clinical Laboratory Standards, 2002 22 (15); and NCCLS, Methods for Dilution Antimicrobial Susceptibility Tests for Bacteria that Grow Aerobically; Approved Standard, Seventh Edition M7-A7. National Committee on Clinical Laboratory Standards, 2006. 26(2)).
Samples (dissolved in DMSO) were serially-diluted in 20% DMSO/saline and transferred (10 μL) in duplicate to 96 well flat bottom microplates. Inocula were prepared by correcting the OD630 of microbe suspensions in incubation broth [RPMI 1640/0.2% dextrose/0.03% glutamine/MOPS @ pH 6.0 (Cellgro) for Candida spp., Sabouraud Dextrose for C. neoformans, and cation-adjusted Mueller-Hinton (Difco) @ pH 7.3 for Staphylococcus spp. to afford an assay volume of […] and final target inocula of: Candida spp. and C. neoformans: 1.5×10^3, and Staphylococcus spp.: 5.0×10^5 CFU/ml. Final sample test concentrations were 1/100th the DMSO stock concentration. […] All organisms were read at either 530 nm using the Biotek Powerwave XS plate reader (Bio-Tek Instruments, Vermont) prior to and after incubation: Candida spp. at 35° C. for 46-50 h, Staphylococcus spp. at 35° C. for 16-20 h, and C. neoformans at 35° C. for 70-74 h. IC50s (concentrations that afford 50% inhibition relative to controls) were calculated using XLfit 4.2 software (IDBS, Alameda, CA) using fit model 201. The MIC is defined as the lowest test concentration that allows no detectable growth. Minimum fungicidal or bactericidal concentrations were determined by removing 5 μl from each clear (or blue) well, transferring to fresh media, and incubating as previously mentioned. The MFC/MBC is defined as the lowest test concentration that kills the organism (allows no growth).
Primary Analysis. Samples were tested in duplicate at one test concentration (50 μg/mL), and percent inhibitions were calculated relative to blank and growth controls. Samples showing 50% inhibition in at least one test organism were selected for dose response (Secondary) studies.
Secondary Analysis. Extracts from the Primary Assay, and first-run pure compounds and column fractions were tested in duplicate at 3 test concentrations (5-fold dilutions). Samples dissolved to 20 mg/mL in DMSO were tested at 200, 40, and 8 μg/mL. Samples dissolved to 2 mg/mL in DMSO were tested at 20, 4, and 0.8 μg/mL.

[2] = tested on: Cryptococcus neoformans ATCC 90113; assay: Antimicrobial microdilution assay against Cryptococcus neoformans (modified CLSI/NCCLS, optical density); assay type: cell-based; conditions: for X more potent than Amphotericin B: C. neoformans, ratio of molar IC50 to Amphotericin B
Procedure, shortened: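 Fungicidal endpoint taken by subculturing 5 μL from each clear well onto agar, MFC being the lowest concentration with no regrowth. Duplicate wells of serially diluted compound (20% DMSO/saline) in RPMI pH 6.0, read at 630 nm pre- and post-incubation, under modified CLSI methods. IC50 means 50% growth inhibition against controls.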

C. glabrata ATCC 90030 = assay: Antifungal broth dilution assay against C. glabrata (modified CLSI); assay type: cell-based, Candida glabrata; conditions: for X more potent than Amphotericin B: molar IC50 ratio versus amphotericin B
Procedure, shortened: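 Growth read by optical density at 530 nm, duplicate wells, 1% final DMSO. Staphylococcus spp.: Mueller-Hinton pH 7.3, 5.0×10^5 CFU/ml, 35 °C for 16-20 h; Candida spp.: RPMI/dextrose/glutamine/MOPS pH 6.0, 1.5×10^3 CFU/ml, 35 °C for 46-50 h. Reported values are 50% inhibition versus controls, no-growth MIC, and killing MFC/MBC.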

[3] = promastigotes, 48 hours, Alamar Blue
[4] = promastigotes, 48 hours, Alamar Blue, read-out: L. donavani IC50
[5] = read-out: C. krusei IC50 (mol/L)
[6] = in vitro, C. neoformans ATCC 90113
[7] = in vitro, C. neoformans ATCC 90113, read-out: C. neoformans IC50 (mol/L)

Row | SMILES | X more potent than Pentamidine [1] | L. donovani IC50 [1, 3] [µg/mL] | IC50 [1, 4] [µM] | X more potent than Amphotericin B (C. krusei ATCC 6258) | C. krusei IC50 (C. krusei ATCC 6258) [µg/mL] | IC50 (C. krusei ATCC 6258; [5]) [µM] | X more potent than Amphotericin B [2] | C. neoformans IC50 [2, 6] [µg/mL] | IC50 [2, 7] [µM] | X more potent than Amphotericin B (C. glabrata ATCC 90030) | further results
1 | O=[N+]([O-])c1ccc(CC2CNCCN(Cc3ccc(CN4CCCN5CCN(CCCNCC4)CC5)cc3)CCCN3CCN(CC3)C2)cc1 (stereo not drawn) [SJA233, Bis-SB-C-Ar-NO2] | 0.12 | 30.32 | 43.9 | 0.25 | 4.070 | 5.9 | 0.30 | 0.550 | 0.797 | – | –
2 | CC(=O)[O-].F[P-](F)(F)(F)(F)F.F[P-](F)(F)(F)(F)F.F[P-](F)(F)(F)(F)F.[Mn+2].[NH4+].[NH4+].c1ccc(CN2CCN3CCCN(CC2)CCN(Cc2ccccc2)CC3)cc1 [AW036, [Mn(Bn2PBCyclen)(C2H3O2)]PF6•2NH4PF6] | 0.20 | 25.41 | 26 | 0.29 | 4.990 | 5.11 | 0.03 | 7.070 | 7.23 | – | –
3 | c1c(CN2CCNCCN3CCN(CC3)CC2)cc(CN2CCNCCN3CCN(CC3)CC2)cc1CN1CCNCCN2CCN(CC2)CC1 [CDG29, tris-SB-cyclens] | 0.32 | 11.69 | 16.5 | 0.23 | 4.660 | 6.57 | 1.69 | 0.100 | 0.141 | – | –
4 | c1c(CN2CCCN3CCN(CCCNCC2)CC3)cc(CN2CCCN3CCN(CCCNCC2)CC3)cc1CN1CCCN2CCN(CCCNCC1)CC2 [CDG19, tris-SB-cyclams] | 0.27 | – | – | 0.25 | – | – | 1.05 | – | – | 0.11 | IC50 ([1]; Leishmania donovani, 48 h, read-out: L. donavani IC50 (mol/L)): 20.1 µM; IC50 ([1]; Leishmania donovani, promastigotes, 48 hours, Alamar Blue, read-out: L. donovani IC50): 15.9 µg/mL; IC50 (C. glabrata ATCC 90030; Nakaseomyces glabratus, ATCC90030, in vitro): 9.8 µg/mL; IC50 (C. glabrata ATCC 90030; Nakaseomyces glabratus, ATCC90030, in vitro, converted with molecular weight): 12.3 µM; IC50 (C. krusei ATCC 6258; Pichia kudriavzevii, ATCC6258, read-out: C. krusei IC50 (mol/L)): 6.04 µM; IC50 (C. krusei ATCC 6258; Pichia kudriavzevii, ATCC6258, read-out: C. krusei IC50 (μg/mL)): 4.79 µg/mL; IC50 ([2]; Cryptococcus neoformans, ATCC90113, in vitro, C. neoformans ATCC 90113, read-out: C. neoformans IC50 (mol/L)): 0.227 µM; IC50 ([2]; Cryptococcus neoformans, ATCC90113, in vitro, C. neoformans ATCC 90113, read-out: C. neoformans IC50 (μg/mL)): 0.18 µg/mL
5 | Cl.Cl.Cl.Cl.Cl.Cl.Cl.Cl.c1cc(CN2CCNCCCN3CCN(CC3)CC2)cc(CN2CCNCCCN3CCN(CC3)CC2)c1 [OB46B, m-SB-homocyclens HCl salt] | 0.13 | 34.26 | 41.9 | 0.16 | 7.420 | 9.06 | 0.75 | 0.280 | – | – | IC50 ([2]; in vitro, C. neoformans ATCC 90113, HCl salt, read-out: C. neoformans IC50 (mol/L)): 0.318 µM
6 | C[C@@H]1[C@H](O)[C@@H](C)/C=C/C=C/C=C/C=C/C=C/C=C/C=C/[C@H](O[C@@H]2O[C@H](C)[C@@H](O)[C@H](N)[C@@H]2O)C[C@@H]2O[C@](O)(C[C@@H](O)C[C@@H](O)[C@H](O)CC[C@@H](O)C[C@@H](O)CC(=O)O[C@H]1C)C[C@H](O)[C@H]2C(=O)O [AMB, Amphotericin B, reference compound] | – | – | – | 1.00 | 1.380 | 1.49 | 1.00 | 0.220 | – | 1.00 | C. glabrata IC50 (C. glabrata ATCC 90030; in vitro): 1.310 µg/mL; IC50 (C. glabrata ATCC 90030; in vitro, converted with molecular weight): 1.42 µM; IC50 ([2]; read-out: IC50 against C. neoformans): 0.238 µM
